Data taken from patent US20260365653A1, “IRREVERSIBLE MUTEGFR INHIBITORS” (Bayer Aktiengesellschaft, priority 2022, published 2026).

Legend:
[1] = molecular target: T1, mutEGFR (D770_N771insSVD) (Homo sapiens, UniProt P00533, DUP768-770); assay: Exon20-Mutant-EGFR (D770_N771insSVD) kinase assay (TR-FRET); format: biochemical; conditions: mutEGFR (D770_N771insSVD) kinase assay IC50, Table 2a; D770_N771insSVD; 2 mM ATP
T1 construct: GST-EGFR #3 (SVD between D770 and N771); made in house; host or cells: Sf9 insect cells (baculovirus)
T1 sequence (P00533 with tags, fused parts or gaps DUP768-770): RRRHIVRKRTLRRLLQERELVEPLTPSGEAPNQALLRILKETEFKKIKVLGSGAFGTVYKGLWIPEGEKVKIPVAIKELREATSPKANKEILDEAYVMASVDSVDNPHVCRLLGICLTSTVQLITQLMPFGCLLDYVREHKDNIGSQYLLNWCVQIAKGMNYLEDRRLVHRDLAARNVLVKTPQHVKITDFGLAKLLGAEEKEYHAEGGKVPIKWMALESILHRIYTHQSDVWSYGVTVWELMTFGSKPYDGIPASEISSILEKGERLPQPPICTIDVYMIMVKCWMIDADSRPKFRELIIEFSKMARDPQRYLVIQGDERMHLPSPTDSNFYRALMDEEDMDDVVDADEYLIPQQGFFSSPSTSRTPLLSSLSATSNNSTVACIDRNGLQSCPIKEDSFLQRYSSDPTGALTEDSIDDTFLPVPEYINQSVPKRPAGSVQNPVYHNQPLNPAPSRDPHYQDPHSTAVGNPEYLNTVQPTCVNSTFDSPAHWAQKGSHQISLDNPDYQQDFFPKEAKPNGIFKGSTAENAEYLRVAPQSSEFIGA

[2] = molecular target: T2, mutEGFR (D770_N771insNPG, T790) (Homo sapiens, UniProt P00533, INS770NPG/T790M); assay: mutEGFR (D770_N771insNPG, T790) kinase assay; format: biochemical; conditions: Table 2a, D770_N771insNPG
T2 construct: exact insNPG construct not described; in-house EGFR proteins were N-terminal GST fusions from baculovirus/insect cells (borders R669-A1210 given only for WT, insSVD, insASV)
T2 sequence (P00533 with tags, fused parts or gaps INS770NPG/T790M limits assumed): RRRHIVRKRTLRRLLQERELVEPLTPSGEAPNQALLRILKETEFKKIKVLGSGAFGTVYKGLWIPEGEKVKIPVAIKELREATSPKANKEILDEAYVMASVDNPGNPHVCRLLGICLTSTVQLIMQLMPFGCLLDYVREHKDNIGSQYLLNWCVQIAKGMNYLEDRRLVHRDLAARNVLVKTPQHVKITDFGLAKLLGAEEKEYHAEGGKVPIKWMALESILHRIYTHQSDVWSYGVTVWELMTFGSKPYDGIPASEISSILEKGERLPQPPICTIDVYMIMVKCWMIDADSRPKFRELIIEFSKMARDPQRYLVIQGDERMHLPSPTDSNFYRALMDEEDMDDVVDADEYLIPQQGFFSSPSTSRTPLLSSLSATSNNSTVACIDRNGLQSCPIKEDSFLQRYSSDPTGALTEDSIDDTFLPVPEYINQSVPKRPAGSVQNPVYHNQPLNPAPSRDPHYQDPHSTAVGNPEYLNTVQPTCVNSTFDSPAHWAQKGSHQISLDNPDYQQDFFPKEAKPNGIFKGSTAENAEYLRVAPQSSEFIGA
Excerpt: The different EGFR proteins used in the biochemical kinase activity inhibition assays were generated inhouse by expression in insect cells using Baculo Virus system and subsequent purification as described in the following paragraphs.
The cDNAs encoding the various protein sequences from human EGFR human (P00533) were optimized for expression in eukaryotic cells and synthesized by the GeneArt Technology at Life Technologies.

[3] = system: BA/F3 (insSVD) cells; assay: Ba/F3-EGFR-insSVD cell survival assay (Cell Titer-Glo); format: cell-based; conditions: Table 3a, cell survival, Cell Titer-Glo, with 10 ng/ml EGF, without IL-3
Method: Cellular Data Description (WT, insSVD, insSVD T790M) 293T cells from ATCC were transfected with pBABEpuro expression constructs for WT EGFR or EGFR-insSVD, or EGFR-insSVD T790M, and pCL-Eco packaging vector using Fugene-6 transfection reagent from Promega. Plates were incubated at 37° C. for 48 h. Retrovirus was harvested by filtering the media supernatant through a 0.45 μm filter.
Ba/F3 cells purchased from DSMZ were grown in RPMI+10% FBS+10 ng/ml IL-3 and infected with filtered retroviral supernatant at a 1:2 dilution. Polybrene was added to a concentration of 8 μg/mL, plates were spun for 90 min, and incubated for 16 h at 37° C. 2 μg/mL puromycin was added to the infected cells 24 h after infection and cells were continually grown in the presence of puromycin and 10 ng/ml IL-3. Following stably expressing Ba/F3 cell lines were generated: Ba/F3-EGFR-WT, Ba/F3-EGFR-insSVD, Ba/F3-EGFR-insSVD T790M, (Ba/F3-vector-control).
For cell survival assays, Ba/F3 cells were grown to a density of 1-2 million cells per mL, spun down and resuspended in media without IL-3, and replated at a concentration of 200,000-500,000 cells per mL. The cells ectopically expressing WT EGFR, EGFR-insSVD, or EGFR-insSVD T790M were plated with 10 ng/ml Millipore Culture grade EGF. The cells ectopically expressing pBABEpuro empty vector were plated with 10 ng/mL IL-3.
2 days later, cells were plated in 50 µL in a 384 well plate at a concentration of 4000 cells per well for cells assayed in the absence of IL-3 and 2000 cells per well for cells assayed in the presence of IL-3. 100 nL of compound was added to each well using a 100 nL pin head, and plates were incubated at 37° C. for 48 h.
Cell viability was measured by adding 20 μL of Cell Titer-Glo Luminescent Cell Viability Reagent diluted 1:3 in PBS. Plates were sealed with Perkin Elmer Top-Seal, inverted several times to mix, and immediately centrifuged at 1000 rpm for 2 min. Plates were incubated in low light conditions for 8-10 min and luminescence was measured.

| SMILES | IC50 [1] [µM] | IC50 [2] [µM] | IC50 ([3]; Mus musculus, BaF3, 48 h) [µM] | IC50 ([3]; 48 h) [µM] |
| --- | --- | --- | --- | --- |
| CC(C)(C)OC(=O)N1CCCC1C#CC(=O)N1CCn2nc(-c3ccc(F)cc3)c(-c3ccncc3)c2C1 (racemic) [Example 87, tert-butyl(2RS)-2-(3-[2-(4-fluorophenyl)-3-(pyridin-4-yl)-6,7-dihydropyrazolo[1,5-a]pyrazin-5(4H)-yl]-3-oxoprop-1-yn-1-yl) pyrrolidine-1-carboxylate] | 0.0531 | 0.0825 | 1.06 | – |
| O=C(C#CC1CCCN1)N1CCn2nc(-c3ccc(F)cc3)c(-c3ccncc3)c2C1 (racemic) [Example 88, 1-[2-(4-fluorophenyl)-3-(pyridin-4-yl)-6,7-dihydropyrazolo[1,5-a]pyrazin-5(4H)-yl]-3-[(2RS)-pyrrolidin-2-yl]prop-2-yn-1-one] | 0.00927 | 0.0158 | 3.79 | – |
| CN(C)C/C=C/C(=O)N1Cc2c(-c3ccncc3)c(-c3ccc(F)cc3)nn2C(CO)C1 (racemic) [Example 201, rac-(R,E)-4-(dimethylamino)-1-(2-(4-fluorophenyl)-7-(hydroxymethyl)-3-(pyridin-4-yl)-6,7-dihydropyrazolo[1,5-a]pyrazin-5(4H)-yl) but-2-en-1-one] | 0.00167 | 0.00342 | 0.423 | – |
| CN(C)C/C=C/C(=O)N1Cc2c(-c3ccncc3)c(-c3ccc(F)cc3)nn2C(C(N)=O)C1 (racemic) [Example 202, (7RS)-5-[(2E)-4-(dimethylamino)but-2-enoyl]-2-(4-fluorophenyl)-3-(pyridin-4-yl)-4,5,6,7-tetrahydropyrazolo[1,5-a]pyrazine-7-carboxamide] | 0.0574 | 0.225 | 9.98 | – |
| C=CC(=O)N1Cc2c(-c3ccncc3)c(-c3ccc(F)cc3)nn2C(C(N)=O)C1 (racemic) [Example 204, (7RS)-5-acryloyl-2-(4-fluorophenyl)-3-(pyridin-4-yl)-4,5,6,7-tetrahydropyrazolo[1,5-a]pyrazine-7-carboxamide] | 0.00461 | 0.0172 | 0.134 | – |
| CN(C)C/C=C/C(=O)N1Cc2c(-c3ccncc3)c(-c3ccc(F)cc3)nn2C(CCO)C1 (racemic) [Example 219, rac-(R,E)-4-(dimethylamino)-1-(2-(4-fluorophenyl)-7-(2-hydroxyethyl)-3-(pyridin-4-yl)-6,7-dihydropyrazolo[1,5-a]pyrazin-5(4H)-yl) but-2-en-1-one] | 0.000715 | 0.00121 | 0.308 | – |
| CN(C)C/C=C/C(=O)N1Cc2c(-c3ccncc3)c(-c3ccc(F)cc3)nn2C(CC(N)=O)C1 (racemic) [Example 220, 2-[(7RS)-5-[(2E)-4-(dimethylamino)but-2-enoyl]-2-(4-fluorophenyl)-3-(pyridin-4-yl)-4,5,6,7-tetrahydropyrazolo[1,5-a]pyrazin-7-yl]acetamide] | 0.00415 | 0.00966 | 5.88 | – |
| CNC(=O)CC1CN(C(=O)/C=C/CN(C)C)Cc2c(-c3ccncc3)c(-c3ccc(F)cc3)nn21 (racemic) [Example 221, 2-[(7RS)-5-[(2E)-4-(dimethylamino)but-2-enoyl]-2-(4-fluorophenyl)-3-(pyridin-4-yl)-4,5,6,7-tetrahydropyrazolo[1,5-a]pyrazin-7-yl]-N-methylacetamide] | 0.00369 | 0.0153 | 2.51 | – |
| C=CC(=O)N1C(C)c2c(-c3ccncc3)c(-c3ccc(Cl)cc3F)nn2C[C@H]1C (single isomer, unassigned; isomer 1) [Example 290] | 1.18 | – | – | 3.43 |
| C=CC(=O)N1C(C)c2c(-c3ccncc3)c(-c3ccc(Cl)cc3F)nn2C[C@H]1C (single isomer, unassigned; isomer 2) [Example 291] | 0.00111 | – | – | 0.053 |
| CN1CCN(C/C=C/C(=O)N2CCn3nc(-c4ccc(F)cc4)c(-c4ccncc4)c3C2)CC1 [Example 82, (2E)-1-[2-(4-fluorophenyl)-3-(pyridin-4-yl)-6,7-dihydropyrazolo[1,5-a]pyrazin-5(4H)-yl]-4-(4-methylpiperazin-1-yl) but-2-en-1-one] | 0.0296 | – | 0.739 | – |
| C=CC(=O)N1Cc2c(-c3ccncc3)c(-c3ccc(C(F)(F)F)cc3F)nn2C[C@H]1C [Example 125, 1-[(6R)-2-[2-fluoro-4-(trifluoromethyl)phenyl]-6-methyl-3-(pyridin-4-yl)-6,7-dihydropyrazolo[1,5-a]pyrazin-5(4H)-yl]prop-2-en-1-one] | 0.00112 | – | 0.0455 | – |

More lines, main results first:

| IC50 [1] [µM] | IC50 [2] [µM] | SMILES | IC50 ([3]; Mus musculus, BaF3, 48 h) [µM] | IC50 ([3]; 48 h) [µM] |
| --- | --- | --- | --- | --- |
| 0.0194 | – | CNC/C=C/C(=O)N1CCn2nc(-c3ccc(F)cc3)c(-c3ccncc3)c2C1 [Example 80, (2E)-1-[2-(4-fluorophenyl)-3-(pyridin-4-yl)-6,7-dihydropyrazolo[1,5-a]pyrazin-5(4H)-yl]-4-(methylamino)but-2-en-1-one] | 1.37 | – |
| 0.00415 | – | CCNC/C=C/C(=O)N1CCn2nc(-c3ccc(F)cc3)c(-c3ccncc3)c2C1 [Example 81, (2E)-4-(ethylamino)-1-[2-(4-fluorophenyl)-3-(pyridin-4-yl)-6,7-dihydropyrazolo[1,5-a]pyrazin-5(4H)-yl]but-2-en-1-one] | 0.134 | – |
| 0.00188 | – | C=CC(=O)N1CCn2nc(-c3cccc(CO)c3)c(-c3ccncc3)c2C1 [Example 121, 1-{2-[3-(hydroxymethyl)phenyl]-3-(pyridin-4-yl)-6,7-dihydropyrazolo[1,5-a]pyrazin-5(4H)-yl}prop-2-en-1-one] | 0.213 | – |
| 0.00038 | – | CN(C/C=C/C(=O)N1CCn2nc(-c3ccc(Cl)cc3)c(-c3ccncc3)c2C1)CCO [Example 170, (2E)-1-[2-(4-chlorophenyl)-3-(pyridin-4-yl)-6,7-dihydropyrazolo[1,5-a]pyrazin-5(4H)-yl]-4-[(2-hydroxyethyl)(methyl)amino]but-2-en-1-one] | 0.19 | – |
| 0.166 | – | C=CC(=O)N1CCn2nc(-c3cccc(Cl)c3F)c(-c3ccnc4[nH]cc(C)c34)c2C1 [Example 176, 1-[2-(3-chloro-2-fluorophenyl)-3-(3-methyl-1H-pyrrolo[2,3-b]pyridin-4-yl)-6,7-dihydropyrazolo[1,5-a]pyrazin-5(4H)-yl]prop-2-en-1-one] | 0.0627 | – |
| 0.207 | – | C=CC(=O)N1CCn2nc(-c3cccc(C(F)(F)F)c3)c(-c3ccnc4[nH]cc(C)c34)c2C1 [Example 178, 1-(3-(3-methyl-1H-pyrrolo[2,3-b]pyridin-4-yl)-2-(3-(trifluoromethyl)phenyl)-6,7-dihydropyrazolo[1,5-a]pyrazin-5(4H)-yl) prop-2-en-1-one] | 0.0586 | – |
| 0.0596 | – | C=CC(=O)N1CCn2nc(-c3ccc4cc(F)sc4c3)c(-c3ccnc4[nH]cc(C)c34)c2C1 [Example 181, 1-[2-(2-fluoro-1-benzothiophen-6-yl)-3-(3-methyl-1H-pyrrolo[2,3-b]pyridin-4-yl)-6,7-dihydropyrazolo[1,5-a]pyrazin-5(4H)-yl]prop-2-en-1-one] | 0.0641 | – |
| 0.233 | – | Cc1c[nH]c2nccc(-c3c(-c4cccc(C(F)(F)F)c4)nn4c3CN(C(=O)/C=C/CN(C)C)CC4)c12 [Example 185, (E)-4-(dimethylamino)-1-(3-(3-methyl-1H-pyrrolo[2,3-b]pyridin-4-yl)-2-(3-(trifluoromethyl)phenyl)-6,7-dihydropyrazolo[1,5-a]pyrazin-5(4H)-yl) but-2-en-1-one] | 0.0688 | – |
| 0.03 | – | Cc1c[nH]c2nccc(-c3c(-c4ccc5cc(F)sc5c4)nn4c3CN(C(=O)/C=C/CN(C)C)CC4)c12 [Example 187, (2E)-4-(dimethylamino)-1-[2-(2-fluoro-1-benzothiophen-6-yl)-3-(3-methyl-1H-pyrrolo[2,3-b]pyridin-4-yl)-6,7-dihydropyrazolo[1,5-a]pyrazin-5(4H)-yl]but-2-en-1-one] | – | – |
